Laboratory results published in patent US20120005765A1, “ANIMAL MODEL FOR PARKINSON'S DISEASE” (Saint Louis University, priority 2010, published 2012).
Entries after “also recorded” stand apart in the source; their conditions may differ.

What was measured:
[1] = test system: PC12 cells; assay: DOPAL toxicity in vitro, viable PC12 cell count (trypan blue); settings: for PC 12 cells/well × 103: rat
Procedure: Determination of DOPAL toxicity in vitro Toxicity experiments were essentially as described previously. PC12 cultures were initially expanded in T-75 flasks with 20 ml Dulbecco's Modified Eagle's Medium supplemented with 4.5 g/l glucose, 4 mM L-glutamine, 5% fetal calf serum, 10% horse serum, 1000 units/l penicillin, and 100 mg/l streptomycin. Cells were transferred to six well culture plates with 2 ml media and grown to 1.5×10^5 cells/well, treated with 50 ng/ml nerve growth factor (NGF), and maintained in NGF-containing media for 7 d prior to experimentation. The medium was changed every 2-3 d. […] During the experiments, the medium was replaced once a day. Cells were detached with buffered saline containing EDT A, centrifuged at 200×g and resuspended in trypan blue for counting of viable cells. […] DOPAL and other compounds were added as described in the description of the figure and examples. Data was analyzed by ANOVA.
DOPAL, as well as other physiologically metabolites and adducts, were added to PC12 cells in culture at concentrations that were physiologically relevant.

[2] = molecular target: α-synuclein (Homo sapiens, UniProt P37840); assay: DOPAL-triggered α-synuclein aggregation in test tube, Western blot; type: biochemical; settings: AS 2 μM, 37° C., up to 4 h, DOPAL 1.5-1,500 μM
Procedure: Determination of DOPAL-triggered α-synuclein aggregation in vitro. Western blot of DOPAL-triggered AS aggregation in test tube experiments. DOPAL was dissolved in 1% benzyl alcohol, then diluted to a final concentration of 1.5-1,500 μM as described previously. AS (2 μM) was incubated at 37° C. in 20 μl of 100 mM tris-HCl buffer (pH 7.2) with or without DA, DOPAL, DOPAC, or homovanillic acid (HVA) for up to 4 h. The reaction was stopped by heating at 70° C. for 3 min in SDS buffer. The entire mixture was transferred to the appropriate gel (vide infra).
SDS-PAGE and immunoblotting. Ten micrograms of protein (estimated by Bio Rad protein reagent) was resolved by electrophoresis on 4-12% bis-tris gels run with MES SDS buffer, and 3-8% tris-acetate gels using tris-acetate running buffer. For immunoblotting, the protein was transferred to PVDF blotting membranes with […] pore size, blocked with 5% milk protein in tris buffered saline (TBS) containing 0.1% Tween 20, and incubated for 1 h with a AS 202 monoclonal antibody (1:2,500 dilution). Blots were washed five times with 5% milk protein in TBS and probed with horseradish peroxidase-conjugated anti-mouse secondary antibody (1:2,500). Blots were washed five times with TBS containing. 0.5% Tween 20 before detection with Super Signal (Pierce).
Western blot analysis was performed to analyze DOPAL-induced aggregation of α-synuclein (FIG. 1). […]

[3] = test system: Substantia Nigra Neurons; assay: Unbiased stereology of substantia nigra neurons after DOPAL injection; type: in vivo; parameters: TOTAL SNpc Neurons / TOTAL SNr Neurons / TH SNpc Neurons: dose or concentration left out as unconfirmed
From the text: Neuropathological Evaluation: Stereology The SN was included in 8-10 sections of all cases counted, and its total length was approximately 1.25 mm. Mean volume of the SNpc of control rats was […], while that of the SNpr was 777,696,500 m^3. Mean volume of the SNpc in the DOPAL injected rats was 264,674,833 m^3 while that of the SNpr was 760,212,500 m^3. There was no significant difference in mean volumes of SNpc or SNpr between controls and DOPAL injected rats. The inventors first counted TH immunoreactive neurons in the SNpc on the side of the DOPAL injection and compared them to those on the non-injected side. […] However, the inventors noted that numerous SNpc neurons sometimes were not stained for TH despite robust labeling of others (FIG. 3F). Thus, the inventors compared the number of Nissl stained profiles in sections immunostained with a-syn rather than TH in the SNpc's ipsilateral to the DOPAL injections to those of control rats which had received injections of a buffered saline solution into their SN's (Table 3). […] The inventors then determined whether DOPAL was toxic to neurons in the subjacent pars reticulata of the SN. The number of neurons in the SNpr of the DOPAL-injected rats was not different from the saline-injected rats (Table 3; FIG. 4C).
The effect of DOPAL injections into the substantia nigra on neurons in either the pars compacta (SNpc) or the pars reticularis (SNpr) are shown. Control animals were injected with buffered saline while experimental animals were injected with DOPAL (4 mg/800 nl). Unbiased stereology was used to assess the number of neurons (see Methods). Means (SD); n.s.=not significant.

[4] = test system: rats; assay: Rotational asymmetry after apomorphine; type: in vivo, rat; settings: apomorphine 0.4 mg/kg, n=6, p, 0.05 vs control rats
Procedure: Determination of DOPAL-induced Parkinson's disease-like behavior Injections of DOPAL or ALDH1A1 antisense oligo into rat SN. To determine if increased levels of DOPAL in SN produces a behavioral model of PD, 3 groups of rats were tested: unilateral SN injection of 4 μg DOPAL in 6 rats; unilateral SN injection of 0.56 μg antisense oligonucleotide (oligo) targeted to aldehyde dehydrogenase (ALDH1A1) mRNA, the DOPAL catabolic enzyme in 3 rats; 5 non-injected rats. After 5-7 weeks, rats were injected with apomorphine (0.4 mg/kg, subcutaneously) and rotational asymmetry determined in each group just prior to sacrifice. After the brains were fixed and sectioned, the SN, and forebrain were stained immunohistochemically for tyrosine hydroxylase immunoreactivity (THir). See Section 3.
Determination of rotational asymmetry. Rats first were injected subcutaneously with the dopamine agonist apomorphine (0.4 mg/kg) dissolved in 0.1 ascorbate saline solution. After waiting 5 min in their home cage, they were placed in a hemispheric rotation bowl 40 cm wide and 20 cm deep. Rotational behavior was then determined for 30 min and the number of ipsilateral and contralateral turns quantified by observation.
Rotational asymmetry was assessed to quantify the effect of unilateral depletions of striatal dopamine from disruptions of nigrostriatal circuitry. The rotational asymmetry behavior of rats (n=6) changed dramatically after injections with DOPAL (FIG. 5).
Behavioral asymmetry is considered the standard behavioral test for rodent models of Parkinson's disease. The column on the right is a summary of all the behaviors recorded in the rotational asymmetry test for all the rats ([…]).

O=CCc1ccc(O)c(O)c1 [DOPAL, 3,4-dihydroxyphenylacetaldehyde]
toxic in vitro at physiological levels [1]: toxic | PC 12 cells/well × 103 ([1]; 6.6 μM): 105 ± 12b cells/well × 103 | PC 12 cells/well × 103 ([1]; 30 μM): 107 ± 10b cells/well × 103 | PC 12 cells/well × 103 ([1]; 66 μM): 100 ± 5a cells/well × 103 | aggregation of α-synuclein oligomers in vitro [2]: triggers dose-dependent aggregation | TOTAL SNpc Neurons ([3]; DOPAL into substantia nigra, Means (SD), control 11926 (1084)): 6879 (422) | TH SNpc Neurons ([3]; DOPAL into substantia nigra, Means (SD), control 11969 (3699)): 5884 (1365) | TOTAL SNr Neurons ([3]; DOPAL into substantia nigra, Means (SD), control 12422 (832)): 11761 (715) | number of Nissl-stained neurons in the SNpc, less than saline-injected rats ([3]; p=0.001): 43% | mean number of TH immunoreactive SNpc neurons ipsilateral, less than contralateral non-injected side ([3]; p=0.032): 50% | number of neurons in the SNpr vs saline-injected rats ([3]; rat, in vivo): not different | rotational asymmetry after unilateral DOPAL injection into SN [4]: significantly preferred turning towards the side of the injection; also recorded: turning significantly towards the side of DOPAL injections
